For 19 compounds, IC50 results are on record in patent publication US20180148418A1, “AMIDO-SUBSTITUTED CYCLOHEXANE DERIVATIVES” (Bayer Pharma Aktiengesellschaft, priority 2015, published 2018).

pIC50: −log10 of the molar value. A value given as a limit tells only on which side of the number the result lay.

For one assay, the target named is T1, TNKS2 (Homo sapiens, UniProt Q9H2K2).
T1 construct: purchased BPS Bioscience, San Diego, USA 80572 (TNKS2 Histone Ribosylation Assay Kit)
T1 sequence (Q9H2K2 1-1166): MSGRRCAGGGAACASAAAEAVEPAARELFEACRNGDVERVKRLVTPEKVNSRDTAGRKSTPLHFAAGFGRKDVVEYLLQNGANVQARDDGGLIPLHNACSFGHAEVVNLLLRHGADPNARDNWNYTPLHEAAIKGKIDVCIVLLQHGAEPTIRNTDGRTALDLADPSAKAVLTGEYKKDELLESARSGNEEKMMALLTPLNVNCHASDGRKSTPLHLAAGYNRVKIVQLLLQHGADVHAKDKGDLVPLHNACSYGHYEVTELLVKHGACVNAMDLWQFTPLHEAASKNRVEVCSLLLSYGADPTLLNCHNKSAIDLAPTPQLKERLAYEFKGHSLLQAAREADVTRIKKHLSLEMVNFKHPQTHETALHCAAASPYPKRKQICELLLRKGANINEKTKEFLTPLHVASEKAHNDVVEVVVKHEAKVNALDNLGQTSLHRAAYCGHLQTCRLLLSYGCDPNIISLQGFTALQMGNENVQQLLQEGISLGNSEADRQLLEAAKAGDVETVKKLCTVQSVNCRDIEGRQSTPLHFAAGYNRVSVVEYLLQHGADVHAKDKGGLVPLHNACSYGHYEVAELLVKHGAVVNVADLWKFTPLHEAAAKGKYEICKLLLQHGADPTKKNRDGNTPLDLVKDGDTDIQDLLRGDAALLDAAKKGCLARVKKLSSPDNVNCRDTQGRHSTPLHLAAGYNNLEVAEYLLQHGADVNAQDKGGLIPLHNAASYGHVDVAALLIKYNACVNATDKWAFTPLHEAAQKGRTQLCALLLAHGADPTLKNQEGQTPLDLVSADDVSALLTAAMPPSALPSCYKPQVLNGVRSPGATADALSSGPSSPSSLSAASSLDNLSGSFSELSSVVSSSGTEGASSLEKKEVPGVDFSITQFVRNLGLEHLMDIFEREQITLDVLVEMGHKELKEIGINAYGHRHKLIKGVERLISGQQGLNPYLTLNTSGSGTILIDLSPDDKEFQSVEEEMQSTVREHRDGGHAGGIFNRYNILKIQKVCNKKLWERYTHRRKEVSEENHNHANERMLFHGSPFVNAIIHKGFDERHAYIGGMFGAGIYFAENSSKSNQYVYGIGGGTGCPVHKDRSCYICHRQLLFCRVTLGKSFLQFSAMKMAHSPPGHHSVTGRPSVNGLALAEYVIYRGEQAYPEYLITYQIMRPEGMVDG
Kind of assay: TNKS2 Assay B (auto-parsylation, [3H]-NAD+ SPA). The format is biochemical. Conditions: 6 nM TNKS2, auto-parsylation, over night at room temperature.

Assay [1] has as its system HEK293 cells cotransfected with the FOP control vector. Kind of assay: HEK293 FOP assay (control reporter with non-functional TCF elements). The format is cell-based. Conditions: Homo sapiens, 16 hours. Summed up:
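Compound series from 50 μM down to 15 nM, prediluted in DMSO then 50-fold into CAFTY buffer (pH 7.4, 2 mM Ca2+, 0.01% BSA), tested alongside TOP cells on a Geneticin-selected HEK293 FOP line whose TCF elements are replaced by a random sequence; recombinant human Wnt-3a applied at 2500-5 ng/ml.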

For assay [2], the system named is wildtype Wnt signaling cascade. Kind of assay: HEK293 TOP assay (Super TopFlash luciferase reporter, Wnt-3a stimulated). Type of assay: cell-based. Particulars: Homo sapiens, HEK293, 16 h, HEK293 TOP reporter cells, Wnt3a at EC50, 16 hours. The essentials:
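Compound series (50 μM down to 15 nM, 3.16-fold) diluted from DMSO 50-fold into CAFTY buffer, pH 7.4, 2 mM Ca^2+, 0.01% BSA, applied to Wnt-3a-stimulated HEK293 TopFlash and FOP reporter lines in parallel. Cells seeded 10000/well 24 h before; luciferase signal measured.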
In general terms: A reporter such as luciferase makes a cellular process visible.

Usually pIC50 stands for the negative decadic logarithm of the IC50, by convention in mol/L. The low end stands for a high IC50, the high end for a low IC50. `Cc1cc(NC(=O)C23CCC(NC(=O)c4cnn5cccnc45)(CC2)CC3)c(Cl)cc1F` [Example 118, N-{4-[(2-chloro-4-fluoro-5-methylphenyl)carbamoyl]bicyclo[2.2.2]oct-1-yl}pyrazolo[1,5-a]pyrimidine-3-carboxamide]: the pIC50 on TNKS2 is 7.17; in assay [1], not above 4.30; in assay [2], 6.52.

As to `O=C(NC12CCC(C(=O)Nc3c(F)cc(F)cc3Cl)(CC1)CC2)c1cnn2cccnc12` [Example 119, N-{4-[(2-chloro-4,6-difluorophenyl)carbamoyl]bicyclo[2.2.2]oct-1-yl}pyrazolo[1,5-a]pyrimidine-3-carboxamide], the pIC50 is 6.21 at TNKS2, not above 4.30 in assay [1] and 6.41 in assay [2].

With `O=C(NC12CCC(C(=O)Nc3cnccc3Cl)(CC1)CC2)c1cnn2cccnc12` [Example 120, N-{4-[(4-chloropyridin-3-yl)carbamoyl]bicyclo[2.2.2]oct-1-yl}pyrazolo[1,5-a]pyrimidine-3-carboxamide], the pIC50 is 6.59 at TNKS2, 5.15 in assay [1] and 6.85 in assay [2].

`O=C(NC12CCC(C(=O)Nc3ccc(F)cc3Cl)(CC1)CC2)c1cnc2cccnn12` [Example 121, N-{4-[(2-chloro-4-fluorophenyl)carbamoyl]bicyclo[2.2.2]oct-1-yl}imidazo[1,2-b]pyridazine-3-carboxamide]: the pIC50 against TNKS2 was 6.48; in assay [1] it was not above 4.30; in assay [2], 7.52.

As for `Cc1cc(NC(=O)C23CCC(NC(=O)c4cnc5cccnn45)(CC2)CC3)c(Cl)cc1F` [Example 122, N-{4-[(2-chloro-4-fluoro-5-methylphenyl)carbamoyl]bicyclo[2.2.2]oct-1-yl}imidazo[1,2-b]pyridazine-3-carboxamide], the pIC50 was 6.72 against TNKS2, not above 4.30 in assay [1] and 6.33 in assay [2].

With `O=C(NC12CCC(C(=O)Nc3c(F)cc(F)cc3Cl)(CC1)CC2)c1cnc2cccnn12` [Example 123, N-{4-[(2-chloro-4,6-difluorophenyl)carbamoyl]bicyclo[2.2.2]oct-1-yl}imidazo[1,2-b]pyridazine-3-carboxamide], the figures for the pIC50 (on TNKS2; in assay [1]; in assay [2]) were 6.32, not above 4.30 and 6.18, respectively.

On to `O=C(NC12CCC(C(=O)Nc3cnccc3Cl)(CC1)CC2)c1cnc2cccnn12` [Example 124, N-{4-[(4-chloropyridin-3-yl)carbamoyl]bicyclo[2.2.2]oct-1-yl}imidazo[1,2-b]pyridazine-3-carboxamide], for which the pIC50 against TNKS2 was 6.59; in assay [1], 5.05; in assay [2], 6.54.

With `Cc1cc(C)n2ncc(C(=O)NC34CCC(C(=O)Nc5ccc(F)cc5Cl)(CC3)CC4)c2n1` [Example 125, N-{4-[(2-chloro-4-fluorophenyl)carbamoyl]bicyclo[2.2.2]oct-1-yl}-5,7-dimethylpyrazolo[1,5-a]pyrimidine-3-carboxamide], the pIC50 against TNKS2 is 6.89; in assay [1], not above 4.30; in assay [2], 7.16.

`Cc1cc(C)n2ncc(C(=O)NC34CCC(C(=O)Nc5cc(C)c(F)cc5Cl)(CC3)CC4)c2n1` [Example 126, N-{4-[(2-chloro-4-fluoro-5-methylphenyl)carbamoyl]bicyclo[2.2.2]oct-1-yl}-5,7-dimethylpyrazolo[1,5-a]pyrimidine-3-carboxamide]: the pIC50 on TNKS2 was 7.19; in assay [1], not above 4.30; in assay [2], 6.72.

Take `Cc1cc(C)n2ncc(C(=O)NC34CCC(C(=O)Nc5c(F)cc(F)cc5Cl)(CC3)CC4)c2n1` [Example 127, N-{4-[(2-chloro-4,6-difluorophenyl)carbamoyl]bicyclo[2.2.2]oct-1-yl}-5,7-dimethylpyrazolo[1,5-a]pyrimidine-3-carboxamide]: the values for the pIC50 (on TNKS2; in assay [1]; in assay [2]) were 6.52, not above 4.30 and 6.66, respectively.

Consider `Cc1cc(C)n2ncc(C(=O)NC34CCC(C(=O)Nc5cnccc5Cl)(CC3)CC4)c2n1` [Example 128, N-{4-[(4-chloropyridin-3-yl)carbamoyl]bicyclo[2.2.2]oct-1-yl}-5,7-dimethylpyrazolo[1,5-a]pyrimidine-3-carboxamide], for which the pIC50 was 7.02 at TNKS2, not above 4.30 in assay [1] and 6.62 in assay [2].

As to `O=C(NCC1CCCO1)c1nc[nH]c1C(=O)N[C@H]1CC[C@H](C(=O)Nc2cc(F)ccc2Cl)CC1` (stereo partly drawn) [Example 129, N^5-{trans-4-[(2-chloro-5-fluorophenyl)carbamoyl]cyclohexyl}-N^4-(tetrahydrofuran-2-ylmethyl)-1H-imidazole-4,5-dicarboxamide], the pIC50 against TNKS2 was 7.47; in assay [1] it was 4.41; in assay [2], 6.39.

Take `O=C(N[C@H]1CC[C@H](C(=O)Nc2cc(F)c(F)cc2Cl)CC1)c1cnn2cccnc12` [Example 130, N-{trans-4-[(2-chloro-4,5-difluorophenyl)carbamoyl]cyclohexyl}pyrazolo[1,5-a]pyrimidine-3-carboxamide]: the pIC50 was 7.74 against TNKS2, not above 4.30 in assay [1] and 7.66 in assay [2].

Consider `O=C(N[C@H]1CC[C@H](C(=O)Nc2cc(F)c(F)cc2Cl)CC1)c1cnc2cccnn12` [Example 132, N-{trans-4-[(2-chloro-4,5-difluorophenyl)carbamoyl]cyclohexyl}imidazo[1,2-b]pyridazine-3-carboxamide], for which the pIC50 against TNKS2 is 7.54; in assay [1], not above 4.30; in assay [2], 7.29.

For `O=C(N[C@H]1CC[C@H](C(=O)Nc2c(F)cc(F)cc2Cl)CC1)c1cnc2cccnn12` [Example 133, N-{trans-4-[(2-chloro-4,6-difluorophenyl)carbamoyl]cyclohexyl}imidazo[1,2-b]pyridazine-3-carboxamide], the pIC50 against TNKS2 is 7.26; in assay [1] it was not above 4.30; in assay [2], 6.54.

Turning to `Cc1cc(C)n2ncc(C(=O)N[C@H]3CC[C@H](C(=O)Nc4cc(F)c(F)cc4Cl)CC3)c2n1` [Example 134, N-{trans-4-[(2-chloro-4,5-difluorophenyl)carbamoyl]cyclohexyl}-5,7-dimethylpyrazolo[1,5-a]pyrimidine-3-carboxamide], the results for the pIC50 (at TNKS2; in assay [1]; in assay [2]) were 7.48, not above 4.30 and 6.85, respectively.

`Cc1cc(C)n2ncc(C(=O)N[C@H]3CC[C@H](C(=O)Nc4c(F)cc(F)cc4Cl)CC3)c2n1` [Example 135, N-{trans-4-[(2-chloro-4,6-difluorophenyl)carbamoyl]cyclohexyl}-5,7-dimethylpyrazolo[1,5-a]pyrimidine-3-carboxamide]: the pIC50 against TNKS2 is 7.54; in assay [1] it was not above 4.30; in assay [2], 7.42.

In the case of `O=C(N[C@H]1CC[C@@]2(CCN(c3ccc(F)cc3Cl)C2=O)CC1)c1cnn2cccnc12` [Example 136, N-[(trans)-2-(2-chloro-4-fluorophenyl)-1-oxo-2-azaspiro[4.5]dec-8-yl]pyrazolo[1,5-a]pyrimidine-3-carboxamide], the pIC50 at TNKS2 is 8.33; in assay [1], not above 4.30; in assay [2] it was 8.92.

As to `Cc1cnc2c(C(=O)N[C@H]3CC[C@@]4(CCN(c5ccc(F)cc5Cl)C4=O)CC3)cnn2c1` [Example 137, N-[(trans)-2-(2-chloro-4-fluorophenyl)-1-oxo-2-azaspiro[4.5]dec-8-yl]-6-methylpyrazolo[1,5-a]pyrimidine-3-carboxamide], the values for the pIC50 (at TNKS2; in assay [1]; in assay [2]) were 8.48, not above 4.30 and 5.30, respectively.
